From ChEMBL document CHEMBL3217722, “Synthesis of hybrid 4-anilinoquinoline triazines as potent antimalarial agents, their in silico modeling and bioevaluation as Plasmodium falciparumtransketolase and -hematin inhibitors” (Medchemcomm, 2012)
pIC50: −log10 of the molar value. Values after ≈ are worked out from the molar mass of the structure shown. Active and inactive are the calls of the source. The rule behind the calls is not given here.

Key:
Plasmodium falciparum [1] = assay: Antiplasmodial activity against chloroquine-sensitive Plasmodium falciparum 3D7 after 72 hrs by SYBR Green-1 dye-based fluorescence assay; type: functional, organism-based; settings: 3D7, 72 h
Plasmodium falciparum [2] = assay: Antiplasmodial activity against chloroquine-resistant Plasmodium falciparum K1 after 72 hrs by SYBR Green-1 dye-based fluorescence assay; type: functional, organism-based; settings: K1, 72 h
[3] = Selectivity index, ratio of IC50 for African green monkey Vero cells to IC50 for Plasmodium falciparum; type: toxicity, cell-based; settings: read-out: Ratio IC50
Plasmodium yoelii [4] = assay: Inhibition of beta-hematin formation in Plasmodium yoelii infected Swiss mouse plasma after 16 hrs; type: functional
[5] = Inhibition of Plasmodium falciparum transketolase using fructose-6-phosphate as substrate by spectrophotometric analysis
Plasmodium yoelii [6] = assay: Antimalarial activity against chloroquine-resistant Plasmodium yoelii N-67 infected in Swiss mouse assessed as inhibition of parasitemia at 50 mg/kg, po qd for 4 days relative to control; type: functional; settings: N-67, 96 h
Plasmodium yoelii [7] = assay: Antimalarial activity against chloroquine-resistant Plasmodium yoelii N-67 infected in Swiss mouse assessed as inhibition of parasitemia at 100 mg/kg, po qd for 4 days relative to control; type: functional; settings: N-67, 96 h
Plasmodium yoelii [8] = assay: Antimalarial activity against chloroquine-resistant Plasmodium yoelii N-67 infected in Swiss mouse assessed as mouse survival at 100 mg/kg, po qd for 4 days measured on day 28; type: functional, organism-based; parameters: dose 100 mg/kg
Plasmodium yoelii [9] = assay: Antimalarial activity against chloroquine-resistant Plasmodium yoelii N-67 infected in Swiss mouse assessed as mouse survival at 50 mg/kg, po qd for 4 days measured on day 28; type: functional, organism-based; parameters: dose 50 mg/kg

Row | SMILES | IC50 (Plasmodium falciparum [1]) [µg/mL] | IC50 (Plasmodium falciparum [2]) [µg/mL] | selectivity ratio [3] | IC50 (Plasmodium yoelii [4]) [µg/mL] | pIC50 [5] | inhibition in vivo at 50 mg/kg (Plasmodium yoelii [6]) [%] | inhibition in vivo at 100 mg/kg (Plasmodium yoelii [7]) [%] | Activity (Plasmodium yoelii [8]) | Activity (Plasmodium yoelii [9])
1 | CCN1CCN(c2nc(Nc3ccc(Nc4ccnc5cc(Cl)ccc45)cc3)nc(Nc3ccc(OC)c(OC)c3)n2)CC1 | 0.00258 (≈ 0.00421 µM) | 0.0023 (≈ 0.00376 µM) | 624 | 2.45 (≈ 4 µM) | 4.07 | – | – | – | –
2 | CN1CCN(c2nc(Nc3ccc(Nc4ccnc5cc(Cl)ccc45)cc3)nc(N3CCc4ccccc4C3)n2)CC1 | 0.0281 (≈ 0.0486 µM) | – | 48.4 | 2.81 (≈ 4.86 µM) | – | – | – | – | –
3 | CCN1CCN(c2nc(Nc3ccc(Nc4ccnc5cc(Cl)ccc45)cc3)nc(N3CCCc4ccccc43)n2)CC1 | 0.0208 (≈ 0.0352 µM) | 0.0116 (≈ 0.0197 µM) | 36 | 6.55 (≈ 11.1 µM) | – | 77.8 | 99 | inactive | inactive
4 | Clc1ccc2c(Nc3ccc(Nc4nc(NCCCN5CCOCC5)nc(N5CCCc6ccccc65)n4)cc3)ccnc2c1 | 0.0147 (≈ 0.0236 µM) | > 0.5 | 440 | 2.4 (≈ 3.86 µM) | – | – | – | – | –
5 | CN1CCN(c2nc(Nc3ccc(Nc4ccnc5cc(Cl)ccc45)cc3)nc(Nc3cccc(F)c3)n2)CC1 | 0.0228 (≈ 0.041 µM) | 0.00154 (≈ 0.00277 µM) | 55.3 | 3.03 (≈ 5.45 µM) | – | 99.8 | 100 | inactive | inactive
6 | Fc1ccc(Nc2nc(NCCCN3CCOCC3)nc(Nc3ccc(Nc4ccnc5cc(Cl)ccc45)cc3)n2)cc1 | 0.0158 (≈ 0.0264 µM) | – | 682 | 2.17 (≈ 3.62 µM) | – | – | – | – | –
7 | COc1ccc(Nc2nc(NCCCN3CCOCC3)nc(Nc3ccc(Nc4ccnc5cc(Cl)ccc45)cc3)n2)cc1 | 0.00381 (≈ 0.00622 µM) | 0.155 (≈ 0.253 µM) | 1310 | 2.34 (≈ 3.82 µM) | 4.14 | – | – | – | –
8 | COc1ccc(Nc2nc(Nc3ccc(Nc4ccnc5cc(Cl)ccc45)cc3)nc(N3CCN(C)CC3)n2)cc1OC | 0.00504 (≈ 0.00843 µM) | 0.00486 (≈ 0.00813 µM) | 169 | 3.05 (≈ 5.1 µM) | – | – | – | – | –
9 | CCN1CCN(c2nc(Nc3ccc(Nc4ccnc5cc(Cl)ccc45)cc3)nc(Nc3cccc(F)c3)n2)CC1 | 0.00247 (≈ 0.00433 µM) | – | 149 | 2.06 (≈ 3.61 µM) | 4.12 | – | – | – | –
10 | CN1CCN(c2nc(Nc3ccc(Nc4ccnc5cc(Cl)ccc45)cc3)nc(N3CCCc4ccccc43)n2)CC1 | 0.0126 (≈ 0.0219 µM) | 0.0682 (≈ 0.118 µM) | 74.4 | 2.48 (≈ 4.29 µM) | – | – | – | – | –
11 | Fc1cccc(Nc2nc(NCCN3CCOCC3)nc(Nc3ccc(Nc4ccnc5cc(Cl)ccc45)cc3)n2)c1 | 0.04 (≈ 0.0683 µM) | 0.0781 (≈ 0.133 µM) | 122 | 2.7 (≈ 4.61 µM) | – | – | – | – | –
12 | COc1cccc(Nc2nc(NCCCN3CCOCC3)nc(Nc3ccc(Nc4ccnc5cc(Cl)ccc45)cc3)n2)c1 | 0.00298 (≈ 0.00487 µM) | – | 2500 | 3.49 (≈ 5.7 µM) | – | – | – | – | –
13 | Fc1ccc(Nc2nc(Nc3ccc(Nc4ccnc5cc(Cl)ccc45)cc3)nc(N3CCCCC3)n2)cc1 | 0.0417 (≈ 0.0772 µM) | > 0.5 | 520 | 2.43 (≈ 4.49 µM) | – | – | – | – | –
14 | CN1CCN(c2nc(Nc3ccc(Nc4ccnc5cc(Cl)ccc45)cc3)nc(Nc3cccc(Cl)c3)n2)CC1 | 0.00241 (≈ 0.00421 µM) | 0.0169 (≈ 0.0295 µM) | 361 | 2.42 (≈ 4.23 µM) | 4.10 | – | – | – | –
15 | Fc1cccc(Nc2nc(Nc3ccc(Nc4ccnc5cc(Cl)ccc45)cc3)nc(N3CCCCC3)n2)c1 | 0.129 (≈ 0.238 µM) | 0.107 (≈ 0.197 µM) | 75.1 | 3.1 (≈ 5.73 µM) | – | – | – | – | –
16 | Clc1ccc2c(Nc3ccc(Nc4nc(NCCN5CCOCC5)nc(N5CCc6ccccc6C5)n4)cc3)ccnc2c1 | 0.0452 (≈ 0.0743 µM) | – | 1160 | 2.08 (≈ 3.42 µM) | – | – | – | – | –
17 | CCN1CCN(c2nc(Nc3ccc(Nc4ccnc5cc(Cl)ccc45)cc3)nc(N3CCc4ccccc4C3)n2)CC1 | 0.0121 (≈ 0.0205 µM) | 0.116 (≈ 0.196 µM) | 75.9 | 2.25 (≈ 3.8 µM) | – | – | – | – | –
18 | CN1CCN(c2nc(Nc3ccc(F)cc3)nc(Nc3ccc(Nc4ccnc5cc(Cl)ccc45)cc3)n2)CC1 | 0.00897 (≈ 0.0161 µM) | 0.00206 (≈ 0.0037 µM) | 122 | 2.08 (≈ 3.74 µM) | – | – | 100 | inactive | –
19 | CN1CCN(c2nc(Nc3ccc(Cl)cc3)nc(Nc3ccc(Nc4ccnc5cc(Cl)ccc45)cc3)n2)CC1 | 0.0078 (≈ 0.0136 µM) | 0.0352 (≈ 0.0614 µM) | 66.7 | 2.17 (≈ 3.79 µM) | – | – | 100 | inactive | –

Row | SMILES | IC50 (Plasmodium falciparum [1]) [µg/mL] | IC50 (Plasmodium falciparum [2]) [µg/mL] | selectivity ratio [3] | IC50 (Plasmodium yoelii [4]) [µg/mL] | pIC50 [5] | inhibition in vivo at 50 mg/kg (Plasmodium yoelii [6]) [%] | inhibition in vivo at 100 mg/kg (Plasmodium yoelii [7]) [%] | Activity (Plasmodium yoelii [8]) | Activity (Plasmodium yoelii [9])
20 | Clc1ccc2c(Nc3ccc(Nc4nc(NCCCN5CCOCC5)nc(N5CCOCC5)n4)cc3)ccnc2c1 | 0.00276 (≈ 0.00479 µM) | 0.00266 (≈ 0.00462 µM) | 3320 | 2.98 (≈ 5.17 µM) | – | 98.4 | 100 | – | inactive
21 | Clc1cccc(Nc2nc(NCCN3CCOCC3)nc(Nc3ccc(Nc4ccnc5cc(Cl)ccc45)cc3)n2)c1 | 0.0306 (≈ 0.0508 µM) | 0.00649 (≈ 0.0108 µM) | 101 | 2.01 (≈ 3.34 µM) | – | – | – | – | –
22 | Clc1ccc2c(Nc3ccc(Nc4nc(NCCCN5CCOCC5)nc(N5CCc6ccccc6C5)n4)cc3)ccnc2c1 | 0.0203 (≈ 0.0327 µM) | 0.0555 (≈ 0.0892 µM) | 436 | 2.09 (≈ 3.36 µM) | – | – | – | – | –
23 | CCN1CCN(c2nc(Nc3ccc(Nc4ccnc5cc(Cl)ccc45)cc3)nc(Nc3cccc(OC)c3)n2)CC1 | 0.0089 (≈ 0.0153 µM) | – | 73 | 2.25 (≈ 3.87 µM) | – | – | – | – | –
24 | Clc1ccc(Nc2nc(NCCCN3CCOCC3)nc(Nc3ccc(Nc4ccnc5cc(Cl)ccc45)cc3)n2)cc1 | 0.00463 (≈ 0.00751 µM) | 0.00858 (≈ 0.0139 µM) | 482 | 2.25 (≈ 3.65 µM) | – | – | – | – | –
25 | COc1ccc(Nc2nc(NCCCN3CCOCC3)nc(Nc3ccc(Nc4ccnc5cc(Cl)ccc45)cc3)n2)cc1OC | 0.00458 (≈ 0.00713 µM) | 0.0026 (≈ 0.00405 µM) | 413 | 2.3 (≈ 3.58 µM) | – | – | – | – | –
26 | O=C(O)C(=O)Cc1ccc(O)cc1 [4-HYDROXYPHENYLPYRUVIC ACID] | – | – | – | – | 3.99 | – | – | – | –
27 | CN1CCN(c2nc(Nc3ccc(Nc4ccnc5cc(Cl)ccc45)cc3)nc(N3CCOCC3)n2)CC1 | 0.00322 (≈ 0.00605 µM) | 0.00286 (≈ 0.00538 µM) | 121 | 6.5 (≈ 12.2 µM) | – | – | – | – | –
28 | Clc1cccc(Nc2nc(NCCCN3CCOCC3)nc(Nc3ccc(Nc4ccnc5cc(Cl)ccc45)cc3)n2)c1 | 0.00382 (≈ 0.0062 µM) | 0.00882 (≈ 0.0143 µM) | 180 | 4.56 (≈ 7.4 µM) | 4.12 | – | – | – | –
29 | CCN1CCN(c2nc(Nc3ccc(Nc4ccnc5cc(Cl)ccc45)cc3)nc(Nc3ccc(OC)cc3)n2)CC1 | 0.00426 (≈ 0.00732 µM) | 0.00308 (≈ 0.00529 µM) | 75.1 | 2.08 (≈ 3.57 µM) | – | – | – | – | –
30 | Clc1ccc2c(Nc3ccc(Nc4nc(NCCN5CCOCC5)nc(N5CCOCC5)n4)cc3)ccnc2c1 | 0.00587 (≈ 0.0104 µM) | 0.0532 (≈ 0.0946 µM) | 41.6 | 9.82 (≈ 17.5 µM) | – | – | – | – | –
31 | CCN1CCN(c2nc(Nc3ccc(F)cc3)nc(Nc3ccc(Nc4ccnc5cc(Cl)ccc45)cc3)n2)CC1 | 0.0111 (≈ 0.0195 µM) | 0.0198 (≈ 0.0347 µM) | 88.2 | 2.64 (≈ 4.63 µM) | – | – | – | – | –
32 | CCN1CCN(c2nc(Nc3ccc(Nc4ccnc5cc(Cl)ccc45)cc3)nc(Nc3cccc(Cl)c3)n2)CC1 | 0.00211 (≈ 0.0036 µM) | 0.00496 (≈ 0.00846 µM) | 318 | 2.06 (≈ 3.51 µM) | 4.13 | – | – | – | –
33 | COc1cccc(Nc2nc(Nc3ccc(Nc4ccnc5cc(Cl)ccc45)cc3)nc(N3CCN(C)CC3)n2)c1 | 0.00426 (≈ 0.0075 µM) | – | 117 | 2.05 (≈ 3.61 µM) | – | – | – | – | –
34 | CCN1CCN(c2nc(Nc3ccc(Nc4ccnc5cc(Cl)ccc45)cc3)nc(N3CCOCC3)n2)CC1 | 0.00216 (≈ 0.00396 µM) | 0.0147 (≈ 0.0269 µM) | 431 | 4.17 (≈ 7.64 µM) | – | 93.5 | 100 | inactive | inactive
35 | Clc1ccc2c(Nc3ccc(Nc4nc(NCCN5CCOCC5)nc(N5CCCc6ccccc65)n4)cc3)ccnc2c1 | 0.0174 (≈ 0.0285 µM) | 0.275 (≈ 0.452 µM) | 588 | 2.31 (≈ 3.8 µM) | – | – | – | – | –
36 | CCN1CCN(c2nc(Nc3ccc(Cl)cc3)nc(Nc3ccc(Nc4ccnc5cc(Cl)ccc45)cc3)n2)CC1 | 0.00414 (≈ 0.00706 µM) | 0.00981 (≈ 0.0167 µM) | 67.6 | 2.05 (≈ 3.5 µM) | – | – | – | – | –
37 | Fc1ccc(Nc2nc(NCCN3CCOCC3)nc(Nc3ccc(Nc4ccnc5cc(Cl)ccc45)cc3)n2)cc1 | 0.00981 (≈ 0.0167 µM) | 0.0954 (≈ 0.163 µM) | 1330 | 2.38 (≈ 4.06 µM) | – | – | 100 | inactive | –
38 | Fc1cccc(Nc2nc(NCCCN3CCOCC3)nc(Nc3ccc(Nc4ccnc5cc(Cl)ccc45)cc3)n2)c1 | 0.00136 (≈ 0.00227 µM) | 0.00571 (≈ 0.00952 µM) | 551 | 2.06 (≈ 3.43 µM) | 4.12 | – | 100 | inactive | –
